Reference: patent US9505834B2, “Methods for controlling the galactosylation profile of recombinantly-expressed proteins” (AbbVie Inc., priority 2011, dated 2016)

Assays:
[1] = tested on: adalimumab-producing CHO cell line; experiment: Example 3 oligosaccharide analysis, hydrolysate-based media, batch shake flasks; assay type: cell-based, Chinese Hamster
Description: (§1) For all studies with CHO cell lines described throughout this invention, samples were collected daily and measured for cell density and viability using a Cedex cell counter. Retention samples for titer analysis via Poros A method were collected by centrifugation at 12,000 RPM for 5 min when the culture viability began declining. The cultures were harvested by collecting 125 mL aliquots and centrifuging at 3,000 RPM for 30 min when culture viability was near or below 50%. All supernatants were stored at −80° C. until analysis.
For all studies, the harvest samples were Protein A purified and prepared for the oligosaccharide assay using the following procedures. As a first step in the process of establishing the identity and quantifying the oligosaccharides, they are released from the protein by enzymatic digestion with N-glycanase. Once the glycans are released, the free reducing end of each glycan is labeled by reductive amination with a fluorescent tag, 2-aminobenzamide (2-AB). The resulting labeled glycans are separated by normal-phase HPLC (NP-HPLC) in acetonitrile: 50 mM ammonium formate, pH 4.4, and detected by a fluorescence detector. Quantitation is based on the relative area percent of detected sugars. Throughout this invention, the relative area percentages of the agalactosyl fucosylated biantennary oligosaccharides, denoted as NGA2F+NGA2F-GlcNAc sum, and the galactose-containing fucosylated biantennary oligosaccharides NA1F+NA2F sum are reported and discussed.
All media were filtered through Corning 0.5 L or 1 L filter systems (0.22 μm PES) and stored at 4° C. until use.
(§2) Production cultures were initiated in duplicate 500 mL Corning vented non-baffled shake flasks (200 mL working volume) at an initial VCD of approximately 0.5×10^6 cells/mL. Cultures were maintained on orbital shakers at 110 RPM in a dry incubator at 35° C. and 5% CO2. A glucose solution (1.25% (v/v) of 40% solution) was fed when the media glucose concentration fell below 3 g/L.

[2] = tested on: adalimumab-producing NSO cell line; experiment: Example 6 culture growth & productivity; assay type: cell-based; settings: for culture growth and viability profiles: galactose 0 to 5 mM and/or manganese chloride up to 0.5 μM
Description: Growth and production media for the adalimumab-producing NSO cell line were prepared using a proprietary Life Technologies Gibco chemically defined media, PFBM-3 basal medium plus PFFM-4 feed medium.
Upon thaw, cells were expanded for 3 to 5 (2 days each) passages in a combination of 250 mL, 500 mL, 1 L, 2 L and 3 L Corning vented non-baffled shake flasks. Production cultures were initiated in single 1 L Corning vented non-baffled shake flasks (240 mL initial working volume) at an initial VCD of approximately 2.5×10^5 cells/mL. Cultures were maintained on orbital shakers at 100 RPM in a dry incubator at 37° C. and 5% CO2. The shake flask study was run in a fed-batch mode and the culture was fed PFFM-4 as follows: 24 mL—day 2, 28.8 mL—day 4, 28.8 mL—day 6, and 28.8 mL—day 8.
Samples were collected every 2 days and measured for cell density and viability using a Cedex cell counter. Retention samples for titer analysis via Poros A method were collected daily beginning on Day 8 by centrifugation at 2,000 g for 10 min and then filtered through 0.2 μm PVDF syringe filter. The cultures were harvested on production day 10. The entire culture was collected, chilled on ice to approximately 0° C. for 1.5 hours, the cells and debris flocculated at pH 5.0 by the addition of 1M citric acid and held for 15 minutes, and centrifuged at 4000x g for 15 min at 5° C. The supernatant was passed through 0.20 μm Millipore Stericup PES filters, and, immediately post filtration, the acidified clarified cell-free harvest was neutralized with 2M Tris to pH 7.1±0.2. The cell free harvest was transferred to PETG bottles and stored at −80° C. until analysis.
Galactose was supplemented at the following levels in both production and feed media: 0, 1, 4, 5, and 10 mM.

[3] = tested on: adalimumab-producing CHO cell line; experiment: Example 1 culture growth & productivity, batch shake flasks; assay type: cell-based, Chinese Hamster; settings: galactose 0 to 100 mM and/or manganese chloride up to 80 μM
Description: All supernatants were stored at −80° C. until analysis. […] Culture growth, productivity, and product quality data for control cultures is the average of the 3 experiments.

[4] = tested on: adalimumab-producing CHO cell line #2; experiment: Example 4 culture growth & productivity; assay type: cell-based, Chinese Hamster; settings: galactose 0 to 20 mM and/or manganese chloride 0 to 40 μM
Description: as §1
Growth and production media for the adalimumab-producing CHO cell line #2 were prepared using a proprietary Life Technologies Gibco chemically defined media, GIA-1. […] All media were filtered through Corning 0.5 L or 1 L filter systems (0.22 μm PES) and stored at 4° C. until use.
as §2, with “Upon thaw, cells were expanded for 5 to 8 (2 to 3 day each) passages in a combination of 250 mL, 500 mL, and 1000 mL Corning vented non-baffled shake flasks. Production” for “Production”, “180” for “110”, “g/L. […]” for “g/L.”

[5] = tested on: adalimumab-producing CHO cell line #3; experiment: Example 5 culture growth & productivity; assay type: cell-based, Chinese Hamster; settings: 30 mM galactose alone
Description: as §1
Growth and production media for the adalimumab-producing CHO cell line #3 were prepared using the proprietary Life Technologies Gibco chemically defined media, GIA-1.
Upon thaw, cells were expanded in Corning vented non-baffled shake flasks maintained on orbital shakers at 140 RPM, and in 10 L cell bags (2 L working volume) maintained at 25 RPM, 7° angle, and 0.25 SLPM airflow in a dry incubator at 36° C. and 5% CO2. Production cultures were initiated in 3 L bioreactors (1.4 L initial working volume) at 36° C., 30% dissolved oxygen, 200 RPM, and pH 6.9±0.2. A fixed split ratio of cells to media of 1:6.7 was utilized to initiate the production stage cultures. A temperature shift was performed when the culture VCD reached a value higher than 5×10^6 cells/mL. […]

Manganese (II) Chloride [manganese chloride]
decrease in the NGA2F+NGA2F-GlcNac sum ([1]; manganese chloride alone, range 0 to 40 μM, within assay variability): approximately 1%
culture growth and viability profiles [2]: comparable to the control condition
cell growth and viability profiles [3]: comparable to control cultures
culture growth, viability profiles, and harvest titer [4]: comparable to the control cultures

O=C[C@H](O)[C@@H](O)[C@@H](O)[C@H](O)CO [galactose, D(+)Galactose]
maximum decrease in the NGA2F+NGA2F-GlcNac sum ([1]; galactose alone up to 40 mM): 4%
maximum increase in the NA1F+NA2F sum ([1]; galactose alone up to 40 mM): 4%
culture growth and viability profiles [2]: comparable to the control condition
effect on culture growth and productivity ([2]; galactose 10 mM): detrimental effect on culture growth and productivity
harvest titer lower than control condition ([2]; galactose 10 mM): 60%
cell growth and viability profiles [3]: comparable to control cultures
culture growth, viability profiles, and harvest titer [4]: comparable to the control cultures
growth profile [5]: grew slower and reached a lower peak VCD
